# Like-named read-outs stand apart in the source and are kept apart here.
# How the values were obtained:
# [1] = cited from earlier work
# [2] = target: T1, 5-HT1a (Rattus norvegicus, UniProt P19327); settings: functional tests, Eur J Pharmacol. 1986; 128 (3): 295-8; cited from earlier work
# T1 construct: suppressant effects of 5-HT1a agonists on dorsal raphe neuronal firing; host or cells: dorsal raphe neurons (endogenous receptor)
# T1 sequence (P19327 1-422): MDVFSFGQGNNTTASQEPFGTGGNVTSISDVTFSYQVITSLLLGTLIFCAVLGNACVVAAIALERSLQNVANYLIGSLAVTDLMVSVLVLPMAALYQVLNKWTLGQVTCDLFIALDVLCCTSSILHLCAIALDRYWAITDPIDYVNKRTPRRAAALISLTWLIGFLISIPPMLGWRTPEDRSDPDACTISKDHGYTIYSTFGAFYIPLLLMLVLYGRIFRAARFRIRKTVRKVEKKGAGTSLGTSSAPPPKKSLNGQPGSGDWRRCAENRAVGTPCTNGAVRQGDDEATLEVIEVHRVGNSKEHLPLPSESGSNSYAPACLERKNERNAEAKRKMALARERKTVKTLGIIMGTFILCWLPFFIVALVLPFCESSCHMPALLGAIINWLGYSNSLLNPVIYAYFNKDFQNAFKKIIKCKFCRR
# [3] = test system: Ascites hepatoma Yoshida AH-130 cells; assay: Yoshida AH-130 ascites hepatoma rat model of cancer cachexia; assay type: in vivo, male Wistar rats; settings: for Locomotor activity 24 h day 11: Supermex system, marker for fatigue; for Locomotor activity 24 h day 11 / Food intake day 11 / Lean tissue gain without tumour / Lean tissue without tumour / Weight gain without tumour / Body weight without tumour: mean±SEM; for Lean tissue gain without tumour / Lean tissue without tumour / Weight gain without tumour / Body weight without tumour: end of study; for Body weight without tumour: oral gavage, twice daily
# Description: Ascites hepatoma Yoshida AH-130 cells (10^8 cells) are inoculated into 180-200 g male Wistar rats. Alternatively animals receive saline injection only (sham). The animals are housed in groups of three. The day after inoculation animals are randomized into various groups and then receive twice daily treatment with either placebo or compounds over a period of up to 17 days. The primary endpoints of the study include assessment of body weight, body composition (with and without tumour) and survival. Organ weight is assessed at the end of the study (or after death) as a secondary endpoint. In addition locomotor activity is used to assess fatigue using Supermex system (Muromachi, Tokyo, Japan) over a period of 24 hours in cages where the animals are placed individually (type 3 cage); missing data (if due to death) are imputed as ‘zero’ activity; a sensitivity analysis without imputed points is additionally performed. Food intake is also measured. Results are expressed as mean±SEM at the end of the study except where stated otherwise. Doses represent total daily dose given by oral gavage.
# [4] = animal model of cancer cachexia, summary in words
smiles,measurement,setting,value
"CC(C)NCC(O)COc1cccc2[nH]ccc12 (racemic) [racemic pindolol, pindolol, reference compound]",Effect on blood pressure,"[1]; healthy subjects, similar dose of (S)-pindolol and racemic pindolol",reducing diastolic blood pressure
"CC(C)NC[C@@H](O)COc1cccc2ccccc12 [(R)-propranolol, reference compound]",Block of the suppressant effects of 5-HT1a agonists on dorsal raphe neuronal firing,[2],not
"CC(C)NC[C@H](O)COc1cccc2ccccc12 [(S)-propranolol, (S)-1-isopropylamino-3-(1-naphthyloxy)-2-propanol]",Block of the suppressant effects of 5-HT1a agonists on dorsal raphe neuronal firing,[2],blocked the suppressant effects
"CC(C)NCC(O)COc1ccc(COCCOC(C)C)cc1 (centres unmarked) [Bisoprolol, reference compound]",Locomotor activity 24 h day 11,[3]; 5 mg/kg/d oral gavage,315 ± 58
same,Food intake day 11,[3]; 5 mg/kg/d oral gavage,16.00 ± 3.07 g
same,Lean tissue gain without tumour,[3]; 5 mg/kg/d oral gavage,-1.38 ± 11.31 g
same,Lean tissue without tumour,[3]; 5 mg/kg/d oral gavage,158.10 ± 11.86 g
same,Weight gain without tumour,[3]; 5 mg/kg/d oral gavage,-5.46 ± 15.95 g
same,Body weight without tumour,[3]; 5 mg/kg/d total daily dose,202.0 ± 16.04 g
same,Locomotor activity 24 h day 11,[3]; 50 mg/kg/d oral gavage,277 ± 39
same,Food intake day 11,[3]; 50 mg/kg/d oral gavage,9.94 ± 2.10 g
same,Lean tissue gain without tumour,[3]; 50 mg/kg/d oral gavage,-28.96 ± 6.64 g
same,Lean tissue without tumour,[3]; 50 mg/kg/d oral gavage,124.77 ± 7.17 g
same,Weight gain without tumour,[3]; 50 mg/kg/d oral gavage,-30.30 ± 10.95 g
same,Body weight without tumour,[3]; 50 mg/kg/d total daily dose,159.18 ± 9.64 g
same,"Effect on locomotor activity, as a marker for fatigue",[3]; [4],neutral to negative
"CC(C)NC[C@H](O)COc1cccc2[nH]ccc12 [S-pindolol, S-(−)-1-(1H-indol-4-yloxy)-3-(1-methylethylamino)propan-2-ol]",Locomotor activity 24 h day 11,[3]; 0.3 mg/kg/d oral gavage,361 ± 38
same,Food intake day 11,[3]; 0.3 mg/kg/d oral gavage,7.75 ± 5.22 g
same,Lean tissue gain without tumour,[3]; 0.3 mg/kg/d oral gavage,-1.17 ± 15.84 g
same,Lean tissue without tumour,[3]; 0.3 mg/kg/d oral gavage,152.37 ± 15.47 g
same,Weight gain without tumour,[3]; 0.3 mg/kg/d oral gavage,-8.50 ± 19.19 g
same,Body weight without tumour,[3]; 0.3 mg/kg/d total daily dose,178.89 ± 17.04 g
same,Locomotor activity 24 h day 11,[3]; 3 mg/kg/d oral gavage,368 ± 50
same,Food intake day 11,[3]; 3 mg/kg/d oral gavage,15.33 ± 3.84 g
same,Lean tissue gain without tumour,[3]; 3 mg/kg/d oral gavage,18.90 ± 16.06 g
same,Lean tissue without tumour,[3]; 3 mg/kg/d oral gavage,171.99 ± 15.92 g
same,Weight gain without tumour,[3]; 3 mg/kg/d oral gavage,17.30 ± 20.08 g
same,Body weight without tumour,[3]; 3 mg/kg/d total daily dose,215.10 ± 19.89 g
same,Effect on cachectic weight loss,[3]; [4],able to reduce cachectic weight loss
same,"Effect on locomotor activity, as a marker for fatigue",[3]; [4],positive effect on locomotor activity
same,Effect on tumour weight,[3]; [4],reducing the tumour weight
same,Effect on blood pressure,[1]; in vivo,no alteration in blood pressure in a majority of healthy subjects

# Source: US8716325B2, “Treatment of cachexia” (PsiOxus Therapeutics Limited, priority 2006, dated 2014)
